Values after ≈ are worked out from the molar mass of the structure shown.
Columns and labels:
[1] = molecular target: Vascular endothelial growth factor receptor 2 (Homo sapiens, UniProt P35968); test: Inhibition of VEGFR2
[2] = molecular target: T1, Interleukin-1 receptor-associated kinase 4 (Homo sapiens, UniProt Q9NWZ3); test: Inhibition of IRK4
T1 sequence (Q9NWZ3 whole entry): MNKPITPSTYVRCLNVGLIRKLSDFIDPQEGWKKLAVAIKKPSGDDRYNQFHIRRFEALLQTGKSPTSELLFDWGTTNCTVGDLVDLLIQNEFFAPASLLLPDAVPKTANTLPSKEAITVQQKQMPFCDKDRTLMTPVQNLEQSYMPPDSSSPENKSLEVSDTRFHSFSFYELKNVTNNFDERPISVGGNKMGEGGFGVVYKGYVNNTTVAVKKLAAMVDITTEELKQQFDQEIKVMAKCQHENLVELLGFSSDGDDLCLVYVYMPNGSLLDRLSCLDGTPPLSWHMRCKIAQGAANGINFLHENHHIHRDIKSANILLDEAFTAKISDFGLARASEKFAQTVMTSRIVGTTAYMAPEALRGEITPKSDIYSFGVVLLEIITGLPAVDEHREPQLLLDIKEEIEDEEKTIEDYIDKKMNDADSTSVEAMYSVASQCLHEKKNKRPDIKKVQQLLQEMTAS

[3] = molecular target: T2, Aurora kinase A (Homo sapiens, UniProt O14965); test: Inhibition of Aurora A
T2 sequence (O14965 whole entry): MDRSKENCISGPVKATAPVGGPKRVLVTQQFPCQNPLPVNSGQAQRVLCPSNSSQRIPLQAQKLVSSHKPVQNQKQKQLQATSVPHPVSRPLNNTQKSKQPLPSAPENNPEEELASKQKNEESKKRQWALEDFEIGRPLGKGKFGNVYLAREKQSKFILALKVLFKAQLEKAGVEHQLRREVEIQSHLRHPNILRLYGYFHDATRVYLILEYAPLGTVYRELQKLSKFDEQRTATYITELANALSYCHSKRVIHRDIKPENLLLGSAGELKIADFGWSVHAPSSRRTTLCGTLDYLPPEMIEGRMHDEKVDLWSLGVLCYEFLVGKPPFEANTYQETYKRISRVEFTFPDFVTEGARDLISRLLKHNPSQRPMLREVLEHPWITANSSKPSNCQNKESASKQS

[4] = molecular target: Aurora kinase B (Homo sapiens, UniProt Q96GD4); test: Inhibition of Aurora B
Chain of Aurora kinase B (Q96GD4 whole entry): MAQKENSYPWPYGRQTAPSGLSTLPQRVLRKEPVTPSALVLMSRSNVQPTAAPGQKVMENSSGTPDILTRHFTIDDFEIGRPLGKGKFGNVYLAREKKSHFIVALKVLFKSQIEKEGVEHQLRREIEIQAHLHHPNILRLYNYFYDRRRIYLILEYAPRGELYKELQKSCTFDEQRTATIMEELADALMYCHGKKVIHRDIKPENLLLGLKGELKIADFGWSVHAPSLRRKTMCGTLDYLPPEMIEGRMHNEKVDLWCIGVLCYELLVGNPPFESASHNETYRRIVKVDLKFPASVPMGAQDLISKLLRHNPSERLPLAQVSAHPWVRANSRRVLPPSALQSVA

[5] = molecular target: Tyrosine-protein kinase Lck (Homo sapiens, UniProt P06239); test: Inhibition of LCK
Chain of Tyrosine-protein kinase Lck (P06239 whole entry): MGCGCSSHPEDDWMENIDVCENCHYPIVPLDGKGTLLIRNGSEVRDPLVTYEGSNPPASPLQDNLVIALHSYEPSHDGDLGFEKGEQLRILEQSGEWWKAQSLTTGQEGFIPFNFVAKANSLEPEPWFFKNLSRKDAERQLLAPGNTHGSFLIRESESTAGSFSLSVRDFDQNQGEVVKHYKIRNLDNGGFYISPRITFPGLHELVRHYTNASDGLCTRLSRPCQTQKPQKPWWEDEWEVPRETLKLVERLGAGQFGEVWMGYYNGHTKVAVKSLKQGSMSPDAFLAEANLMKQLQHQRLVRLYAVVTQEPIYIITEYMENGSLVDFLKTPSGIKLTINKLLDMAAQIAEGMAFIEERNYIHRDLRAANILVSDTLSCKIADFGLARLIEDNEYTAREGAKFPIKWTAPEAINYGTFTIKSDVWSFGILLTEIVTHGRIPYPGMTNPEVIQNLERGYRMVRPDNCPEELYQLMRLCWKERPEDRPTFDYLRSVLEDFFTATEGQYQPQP

[6] = Inhibition of Aurora kinase assessed as reduction histone H3 Ser10 phosphorylation by cell based assay
[7] = molecular target: Ribosomal protein S6 kinase alpha-3 (Homo sapiens, UniProt P51812); test: Inhibition of RSK2
Chain of Ribosomal protein S6 kinase alpha-3 (P51812 whole entry): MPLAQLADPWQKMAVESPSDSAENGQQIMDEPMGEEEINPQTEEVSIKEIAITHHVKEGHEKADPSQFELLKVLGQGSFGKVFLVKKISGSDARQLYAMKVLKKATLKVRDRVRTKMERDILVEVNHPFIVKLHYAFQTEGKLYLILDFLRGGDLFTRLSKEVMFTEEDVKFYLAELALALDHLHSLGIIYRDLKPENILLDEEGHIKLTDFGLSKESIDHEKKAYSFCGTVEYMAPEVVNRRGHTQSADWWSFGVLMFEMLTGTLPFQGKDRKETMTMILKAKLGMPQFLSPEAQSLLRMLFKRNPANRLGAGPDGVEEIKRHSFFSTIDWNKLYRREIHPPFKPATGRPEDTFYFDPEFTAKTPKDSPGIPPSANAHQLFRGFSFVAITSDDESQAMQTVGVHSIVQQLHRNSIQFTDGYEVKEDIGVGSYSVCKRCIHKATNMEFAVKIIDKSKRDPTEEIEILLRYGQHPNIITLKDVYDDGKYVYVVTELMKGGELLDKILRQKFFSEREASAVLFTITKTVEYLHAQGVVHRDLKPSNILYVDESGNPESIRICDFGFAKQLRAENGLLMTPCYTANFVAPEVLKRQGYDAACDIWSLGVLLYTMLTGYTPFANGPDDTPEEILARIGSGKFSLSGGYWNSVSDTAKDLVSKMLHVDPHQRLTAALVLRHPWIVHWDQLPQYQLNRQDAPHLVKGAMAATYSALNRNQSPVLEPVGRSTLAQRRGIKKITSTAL

[8] = molecular target: T3, Serine/threonine-protein kinase Chk1 (Homo sapiens, UniProt O14757); test: Inhibition of CHK1
T3 sequence (O14757 whole entry): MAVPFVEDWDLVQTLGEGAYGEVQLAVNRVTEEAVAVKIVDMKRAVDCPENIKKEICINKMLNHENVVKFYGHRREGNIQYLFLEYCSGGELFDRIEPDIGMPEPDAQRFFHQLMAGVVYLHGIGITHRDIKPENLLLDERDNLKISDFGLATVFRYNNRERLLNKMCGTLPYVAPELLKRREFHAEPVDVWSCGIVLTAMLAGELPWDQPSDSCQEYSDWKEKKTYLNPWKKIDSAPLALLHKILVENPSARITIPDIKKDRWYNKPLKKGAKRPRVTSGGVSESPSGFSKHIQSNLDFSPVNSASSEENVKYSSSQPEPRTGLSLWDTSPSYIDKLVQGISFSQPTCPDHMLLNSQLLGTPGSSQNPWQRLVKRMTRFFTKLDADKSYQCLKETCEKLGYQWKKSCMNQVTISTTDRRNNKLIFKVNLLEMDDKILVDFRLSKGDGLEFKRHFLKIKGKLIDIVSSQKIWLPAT

[9] = AUC (0-6 hrs) in rat at 10 mg/kg, po; format: ADME, organism-based; parameters: time < 6 hr, dose 10 mg/kg, route oral; conditions: plasma
[10] = molecular target: Tyrosine-protein kinase JAK2 (Homo sapiens, UniProt O60674); test: Inhibition of JAK2
Chain of Tyrosine-protein kinase JAK2 (O60674 whole entry): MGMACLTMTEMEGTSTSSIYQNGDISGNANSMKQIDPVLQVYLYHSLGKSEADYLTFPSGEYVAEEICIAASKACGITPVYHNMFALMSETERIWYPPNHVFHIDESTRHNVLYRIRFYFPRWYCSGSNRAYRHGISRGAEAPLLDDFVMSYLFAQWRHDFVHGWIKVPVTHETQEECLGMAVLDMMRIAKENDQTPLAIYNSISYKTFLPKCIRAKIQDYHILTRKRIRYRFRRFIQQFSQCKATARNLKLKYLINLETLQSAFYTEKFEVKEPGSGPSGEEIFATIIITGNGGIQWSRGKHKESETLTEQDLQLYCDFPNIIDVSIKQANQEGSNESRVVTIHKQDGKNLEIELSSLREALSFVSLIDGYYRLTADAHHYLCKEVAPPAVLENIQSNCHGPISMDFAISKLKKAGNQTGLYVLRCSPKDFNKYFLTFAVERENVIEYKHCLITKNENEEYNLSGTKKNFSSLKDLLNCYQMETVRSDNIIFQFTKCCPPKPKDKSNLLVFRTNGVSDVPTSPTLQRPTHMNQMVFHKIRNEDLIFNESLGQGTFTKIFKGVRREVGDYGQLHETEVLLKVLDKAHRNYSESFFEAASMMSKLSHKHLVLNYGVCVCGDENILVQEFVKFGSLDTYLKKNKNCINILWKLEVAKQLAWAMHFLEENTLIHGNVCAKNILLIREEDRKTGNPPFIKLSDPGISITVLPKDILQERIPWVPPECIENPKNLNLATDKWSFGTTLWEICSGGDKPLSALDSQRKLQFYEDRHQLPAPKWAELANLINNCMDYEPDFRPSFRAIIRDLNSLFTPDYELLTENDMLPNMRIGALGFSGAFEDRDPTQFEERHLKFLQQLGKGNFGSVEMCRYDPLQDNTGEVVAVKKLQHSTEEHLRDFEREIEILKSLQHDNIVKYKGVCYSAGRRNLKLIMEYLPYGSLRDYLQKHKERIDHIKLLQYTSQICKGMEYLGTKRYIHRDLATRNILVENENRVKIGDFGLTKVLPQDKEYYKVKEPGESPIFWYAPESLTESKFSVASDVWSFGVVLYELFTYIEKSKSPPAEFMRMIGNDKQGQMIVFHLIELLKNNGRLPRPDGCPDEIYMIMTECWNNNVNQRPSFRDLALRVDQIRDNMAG

[11] = system: Canis familiaris; test: AUC (0-infinity) in dog at 10 mg/kg, po; format: ADME, organism-based, Canis lupus familiaris, Plasma; parameters: time infinity, dose 10 mg/kg, route oral; conditions: in vivo
[12] = system: Canis familiaris; test: Oral bioavailability in dog at 10 mg/kg, po; format: ADME, organism-based, Canis lupus familiaris; conditions: in vivo
[13] = system: A2780; test: Antitumor activity against human A2780 cells assessed as inhibition of cell growth; format: functional, cell-based
[14] = molecular target: Mitogen-activated protein kinase 1 (Homo sapiens, UniProt P28482); test: Inhibition of ERK2
Chain of Mitogen-activated protein kinase 1 (P28482 whole entry): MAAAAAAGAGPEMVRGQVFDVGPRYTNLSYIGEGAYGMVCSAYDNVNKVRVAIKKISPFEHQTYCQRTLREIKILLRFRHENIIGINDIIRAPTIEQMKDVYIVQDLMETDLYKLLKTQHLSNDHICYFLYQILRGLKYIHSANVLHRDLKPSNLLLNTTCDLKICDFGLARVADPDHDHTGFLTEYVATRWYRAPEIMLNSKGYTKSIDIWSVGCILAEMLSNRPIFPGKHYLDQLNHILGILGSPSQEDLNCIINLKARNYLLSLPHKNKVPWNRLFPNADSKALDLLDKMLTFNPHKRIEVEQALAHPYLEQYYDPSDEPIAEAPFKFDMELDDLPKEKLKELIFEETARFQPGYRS

[15] = Clearance in rat at 10 mg/kg, iv; format: ADME, organism-based; parameters: dose 10 mg/kg, route intravenous; conditions: in vivo
[16] = AUC (0-infinity) in rat at 30 mg/kg, po; format: ADME, organism-based; parameters: time infinity, dose 30 mg/kg, route oral; conditions: plasma
[17] = Clearance in mouse at 3 mg/kg, iv; format: ADME, organism-based; parameters: dose 3 mg/kg, route intravenous; conditions: in vivo
[18] = Volume of distribution at steady state in mouse at 3 mg/kg, iv; format: ADME, organism-based; parameters: dose 3 mg/kg, route intravenous; conditions: in vivo, read-out: Vdss
[19] = Oral bioavailability in rat at 30 mg/kg, po; format: ADME, organism-based; conditions: in vivo
[20] = system: A2780; test: Antitumor activity against human A2780 cells xenografted in nu/nu mouse assessed as tumor growth inhibition administered twice daily for 3 or 5 days; format: functional, cell-based
[21] = system: A2780; test: Antitumor activity against human A2780 cells xenografted in nu/nu mouse assessed as tumor growth inhibition at 45 mg/kg, po bid for 5 days relative to untreated control; format: functional; conditions: A2780, 120 h, read-out: TGI
[22] = AUC (0-infinity) in mouse at 3 mg/kg, iv; format: ADME, organism-based; parameters: time infinity, dose 3 mg/kg, route intravenous; conditions: plasma
[23] = system: A2780; test: Antitumor activity against human A2780 cells xenografted in nu/nu mouse assessed as tumor growth inhibition at 67.5 mg/kg, po bid for 3 days relative to untreated control; format: functional; conditions: A2780, 72 h, read-out: TGI
[24] = system: A2780; test: Antitumor activity against human A2780 cells assessed as inhibition of cell survival; format: functional, cell-based
[25] = Oral bioavailability in mouse at 50 mg/kg, po; format: ADME, organism-based; conditions: in vivo
[26] = Solubility in 20 mM acetate buffer at pH 4.0; format: physicochemical
[27] = system: Canis familiaris; test: Half life in dog at 1 mg/kg, iv; format: ADME, organism-based, Canis lupus familiaris; parameters: dose 1 mg/kg, route intravenous; conditions: in vivo
[28] = system: Canis familiaris; test: Volume of distribution at steady state in dog at 1 mg/kg, iv; format: ADME, organism-based, Canis lupus familiaris; parameters: dose 1 mg/kg, route intravenous; conditions: in vivo
[29] = Volume of distribution at steady state in rat at 10 mg/kg, iv; format: ADME, organism-based; parameters: dose 10 mg/kg, route intravenous; conditions: in vivo, read-out: Vdss
[30] = system: Canis familiaris; test: AUC (0-infinity) in dog at 1 mg/kg, iv; format: ADME, organism-based, Canis lupus familiaris, Plasma; parameters: time infinity, dose 1 mg/kg, route intravenous; conditions: in vivo
[31] = AUC (0-infinity) in rat at 10 mg/kg, iv; format: ADME, organism-based; parameters: time infinity, dose 10 mg/kg, route intravenous; conditions: plasma
[32] = Half life in rat at 10 mg/kg, iv; format: ADME, organism-based; parameters: dose 10 mg/kg, route intravenous; conditions: in vivo
[33] = Half life in mouse at 3 mg/kg, iv; format: ADME, organism-based; parameters: dose 3 mg/kg, route intravenous; conditions: in vivo
[34] = AUC (0-infinity) in mouse at 50 mg/kg, po; format: ADME, organism-based; parameters: time infinity, dose 50 mg/kg, route oral; conditions: plasma
[35] = system: A2780; test: Antitumor activity against human A2780 cells xenografted in nu/nu mouse assessed as tumor growth inhibition at 90 mg/kg, po bid for 3 days relative to untreated control; format: functional; conditions: A2780, 72 h, read-out: TGI

Chain of Vascular endothelial growth factor receptor 2 (P35968 whole entry): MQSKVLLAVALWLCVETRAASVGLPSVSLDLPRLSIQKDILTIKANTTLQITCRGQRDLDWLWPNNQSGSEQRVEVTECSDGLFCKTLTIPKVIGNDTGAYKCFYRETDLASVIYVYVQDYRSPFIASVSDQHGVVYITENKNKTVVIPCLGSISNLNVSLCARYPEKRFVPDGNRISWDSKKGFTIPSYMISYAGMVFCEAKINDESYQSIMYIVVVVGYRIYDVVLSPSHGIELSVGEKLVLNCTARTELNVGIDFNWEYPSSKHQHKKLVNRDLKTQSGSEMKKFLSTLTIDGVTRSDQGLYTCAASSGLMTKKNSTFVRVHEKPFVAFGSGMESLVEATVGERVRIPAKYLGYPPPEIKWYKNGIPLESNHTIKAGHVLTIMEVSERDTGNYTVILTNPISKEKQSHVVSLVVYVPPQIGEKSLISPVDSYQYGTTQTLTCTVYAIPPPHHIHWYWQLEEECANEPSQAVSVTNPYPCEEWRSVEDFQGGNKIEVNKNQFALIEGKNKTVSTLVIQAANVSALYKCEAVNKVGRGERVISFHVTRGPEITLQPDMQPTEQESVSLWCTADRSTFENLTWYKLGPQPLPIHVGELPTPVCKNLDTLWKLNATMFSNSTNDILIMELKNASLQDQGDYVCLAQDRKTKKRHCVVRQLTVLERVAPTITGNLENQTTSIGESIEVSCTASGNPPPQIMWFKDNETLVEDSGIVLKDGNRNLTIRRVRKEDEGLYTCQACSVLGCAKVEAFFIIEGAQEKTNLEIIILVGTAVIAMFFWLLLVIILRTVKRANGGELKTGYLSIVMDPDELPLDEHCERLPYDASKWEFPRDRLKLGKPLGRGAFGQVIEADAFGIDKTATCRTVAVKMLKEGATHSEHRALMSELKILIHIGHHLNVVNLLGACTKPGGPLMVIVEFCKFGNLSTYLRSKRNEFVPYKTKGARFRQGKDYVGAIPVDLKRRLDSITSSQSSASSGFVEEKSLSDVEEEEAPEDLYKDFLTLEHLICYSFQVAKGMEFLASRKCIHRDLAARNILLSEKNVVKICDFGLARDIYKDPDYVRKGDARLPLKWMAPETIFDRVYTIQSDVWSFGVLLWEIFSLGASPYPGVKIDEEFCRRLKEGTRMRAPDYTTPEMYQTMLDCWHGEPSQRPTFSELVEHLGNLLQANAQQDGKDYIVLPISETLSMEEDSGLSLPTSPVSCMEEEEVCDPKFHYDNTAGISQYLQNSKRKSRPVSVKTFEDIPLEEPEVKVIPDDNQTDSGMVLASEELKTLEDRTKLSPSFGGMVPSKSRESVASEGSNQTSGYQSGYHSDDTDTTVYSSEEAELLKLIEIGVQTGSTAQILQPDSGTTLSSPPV

SMILES: CCN(Cc1cc(Nc2nc(C)cn3c(-c4cn[nH]c4)cnc23)sn1)C(C)(C)CO
- IC50 [1]: ≤ 1 nM
- IC50 [2]: 8 nM
- IC50 [3]: ≤ 4 nM
- IC50 [4]: ≤ 13 nM
- IC50 [5]: ≤ 1 nM
- EC50 [6]: 24 nM
- IC50 [7]: 180 nM
- IC50 [8]: 13 nM

SMILES: CC(=O)N1CCN(Cc2cc(Nc3nc(C)cn4c(-c5cn[nH]c5)cnc34)sn2)CC1
- IC50 [3]: ≤ 4 nM
- IC50 [4]: ≤ 13 nM
- EC50 [6]: > 1000 nM

SMILES: Cc1cc(Nc2nc(C)cn3c(-c4cn[nH]c4)cnc23)sn1
- IC50 [4]: ≤ 13 nM
- IC50 [5]: 568 nM
- EC50 [6]: 250 nM

SMILES: Cc1cn2c(-c3cn[nH]c3)cnc2c(Nc2cc(C3(N4C[C@@H](C)O[C@@H](C)C4)CC3)ns2)n1
- IC50 [3]: 45 nM
- IC50 [4]: 50 nM
- EC50 [6]: 733 nM
- AUC(0-t) at 6 h [9]: 0.3 µM·h

SMILES: Cc1cn2c(-c3cn[nH]c3)cnc2c(Nc2cc(CN3CCN(C)CC3)ns2)n1
- IC50 [3]: ≤ 4 nM
- IC50 [4]: ≤ 13 nM
- EC50 [6]: 412 nM

SMILES: Cc1cn2c(-c3cn[nH]c3)cnc2c(Nc2cc([C@@H](C)N3C[C@@H](C)O[C@@H](C)C3)ns2)n1
- IC50 [10]: > 10 nM
- IC50 [1]: 710 nM
- AUC [11]: 2.2 µM·h
- IC50 [2]: 1800 nM
- F [12]: 50%
- EC50 [13]: 19 nM
- IC50 [14]: > 10 nM
- IC50 [3]: ≤ 4 nM
- IC50 [4]: ≤ 13 nM
- clearance [15]: 10 mL/min/kg
- AUC(0-inf) [16]: 57.7 µM·h
- clearance [17]: 20 mL/min/kg
- Vd [18]: 1.5 L/kg
- bioavailability [19]: 72%
- TGI [20]: Dose-dependent effect
- inhibition in vivo at 45 mg/kg [21]: 41%
- AUC(0-inf) [22]: 5.6 µM·h
- IC50 [5]: 510 nM
- EC50 [6]: 28 nM
- inhibition in vivo at 67.5 mg/kg [23]: 67%
- EC50 [24]: 20 nM
- bioavailability [25]: 92%
- solubility [26]: 4660 µg/mL (≈ 10.6 mM)
- t1/2 [27]: 4.8 h
- Vdss [28]: 12 L/kg
- Vd [29]: 1.6 L/kg
- IC50 [7]: 330 nM
- AUC [30]: 3.4 µM·h
- AUC(0-inf) [31]: 38.8 µM·h
- AUC(0-t) at 6 h [9]: 4.6 µM·h
- half-life [32]: 5 h
- half-life [33]: 3.9 h
- AUC(0-inf) [34]: 86.4 µM·h
- inhibition in vivo at 90 mg/kg [35]: 79%
- IC50 [8]: 140 nM

SMILES: Cc1cn2c(-c3cn[nH]c3)cnc2c(Nc2cc(C(C)N3CCOCC3)ns2)n1 (racemic)
- IC50 [3]: ≤ 4 nM
- IC50 [4]: ≤ 13 nM
- EC50 [6]: 74 nM
- AUC(0-t) at 6 h [9]: 1.1 µM·h

SMILES: Cc1cn2c(-c3cn[nH]c3)cnc2c(Nc2cc(C(C)N3C[C@@H](C)O[C@@H](C)C3)ns2)n1 (mixture of isomers)
- IC50 [3]: ≤ 4 nM
- IC50 [4]: ≤ 13 nM
- EC50 [6]: 55 nM
- AUC(0-t) at 6 h [9]: 8 µM·h

SMILES: CSc1cn2c(-c3cn[nH]c3)cnc2c(Nc2cc(C)ns2)n1
- IC50 [4]: ≤ 13 nM
- EC50 [6]: 600 nM

SMILES: CCNC(=O)N1CCN(Cc2cc(Nc3nc(C)cn4c(-c5cn[nH]c5)cnc34)sn2)CC1
- IC50 [3]: ≤ 4 nM
- IC50 [4]: ≤ 13 nM
- EC50 [6]: > 1000 nM

SMILES: Cc1cn2c(-c3cn[nH]c3)cnc2c(Nc2cc([C@H](C)N3C[C@@H](C)O[C@@H](C)C3)ns2)n1
- EC50 [6]: 217 nM
- AUC(0-t) at 6 h [9]: 1.1 µM·h

SMILES: Cc1cn2c(-c3cn[nH]c3)cnc2c(Nc2cc(C(C)N3CCOC(C)(C)C3)ns2)n1 (racemic)
- IC50 [3]: ≤ 4 nM
- IC50 [4]: ≤ 13 nM
- EC50 [6]: 71 nM
- AUC(0-t) at 6 h [9]: 1.3 µM·h

SMILES: Cc1cn2c(-c3cn[nH]c3)cnc2c(Nc2cc(CN3CCOCC3(C)C)ns2)n1
- IC50 [3]: ≤ 4 nM
- IC50 [4]: ≤ 13 nM
- IC50 [5]: 384 nM
- EC50 [6]: 117 nM
- AUC(0-t) at 6 h [9]: 3.3 µM·h

SMILES: Cc1cn2c(-c3cn[nH]c3)cnc2c(Nc2cc(CN3CCN(C)C(=O)C3)ns2)n1
- IC50 [3]: ≤ 4 nM
- IC50 [4]: ≤ 13 nM
- EC50 [6]: > 1000 nM

SMILES: Cc1cn2c(-c3cn[nH]c3)cnc2c(Nc2cc(C(c3ccccn3)N3CCOCC3)ns2)n1 (racemic)
- IC50 [3]: ≤ 4 nM
- IC50 [4]: ≤ 13 nM
- EC50 [6]: 104 nM
- AUC(0-t) at 6 h [9]: 0.4 µM·h
